The values below come from patent US10676408B2, “Alkynylpyrazoles as nitrification inhibitors” (BASF SE, priority 2014, dated 2020).

This assay concerns nitrification. As to the kind of experiment: Inhibition of nitrification in soil (48 well plate, ammonium sulfate, color reaction at 540 nm). It counts as cell-based. As to conditions: dose of 10 ppm in 1% DMSO; field soil (e.g. Limburgerhof); incubated at room temperature for up to 72 hrs; inhibition = 100 − % activity compared to control; read-out: IN (best inhibition value obtained for a compound). On the procedure: The compounds of the invention have been tested as follows in terms of the inhibition of nitrification:
Soil was sampled fresh from a field (e.g. Limburgerhof), dried and sieved through a 500 μm sieve. Approximately 200 mg of soil were placed into each well of a 48 well plate. Compounds, or DMSO alone, were added at a concentration of 10 ppm, dissolved in 1% DMSO. 6 μmol ammonium sulfate was added per well as well as 4.8 mg NaClO3.
Subsequently, the samples were incubated at room temperature for up to 72 hrs. After the incubation period 64 mg KCl were added and mixed. 25 μl of the supernatant were placed into a fresh plate and 260 μl of a color reaction solution (from Merck Nr 1.11799.0100) were added.
Measurements were taken with a Tecan plate Reader at 540 nm wavelength.
Inhibition is calculated as x=% activity compared to control, and converted to 100−x to give the value of inhibition, rather than activity.
By inhibition is commonly meant the drop in the measured response relative to a control, in per cent. Take `C#Cc1cc(C#C)n(C)n1` [Compound 1]: the inhibition at 10 ppm was determined as 55%.

As for `C#Cc1ccnn1C` [Compound 2], the inhibition at 10 ppm is 24%.

As for `C#Cc1c(C)nn(C)c1C` [Compound 3], the inhibition at 10 ppm was 27%.
